# Assay results published in US4595678A, “N-substituted pseudo-aminosugars and pharmaceutical compositions containing same” (Takeda Chemical Industries, Ltd., priority 1982, dated 1986).
# Test system: α-glucoside hydrolase (α-glucosidase)
# Test: not given
# Conditions: earlier reports; cited from earlier work
row,SMILES,α-glucoside hydrolase suppressing / α-glucosidase inhibitory activity
1,C[C@H]1O[C@H](O[C@@H]2[C@H](O)[C@@H](O)[C@@H](O[C@@H]3[C@H](O)[C@@H](O)[C@@H](O[C@@H]4[C@H](O)[C@H](O)[C@@H](O[C@H]5O[C@H](CO)[C@H](O)[C@H](O)[C@H]5O)O[C@@H]4CO)O[C@@H]3CO)O[C@H]2CO)[C@@H](O)[C@@H](O)[C@@H]1N[C@@H]1C=C(CO)[C@@H](O)[C@@H](O)[C@@H]1O (stereo in doubt) [Trestatin B],far from being satisfactory
2,"N[C@H]1C[C@](O)(CO)[C@@H](O)[C@H](O)[C@H]1O [valiolamine, 1L(1S)-(1(OH),2,4,5/1,3)-5-amino-1-hydroxymethyl-1,2,3,4-cyclohexanetetraol]",possesses α-glucosidase inhibitory activity
3,C[C@H]1O[C@H](O[C@@H]2[C@H](O)[C@H](O)[C@@H](O[C@@H]3[C@H](O)[C@@H](O)[C@@H](O[C@@H]4[C@H](O)[C@H](O)[C@@H](O[C@H]5O[C@@H](CO)[C@H](O)[C@H](O)[C@H]5O)O[C@@H]4CO)O[C@@H]3CO)O[C@H]2CO)[C@H](O)[C@@H](O)[C@@H]1N[C@H]1C=C(CO)[C@@H](O[C@H]2O[C@H](CO)[C@H](O[C@H]3O[C@H](C)[C@@H](N[C@H]4C=C(CO)[C@@H](O)[C@H](O)[C@H]4O)[C@H](O)[C@H]3O)[C@H](O)[C@H]2O)[C@H](O)[C@H]1O (stereo in doubt) [Trestatin A],far from being satisfactory
4,C[C@H]1O[C@H](O[C@H]2[C@H](O)[C@@H](O)[C@@H](O[C@H]3[C@H](O)[C@@H](O)[C@@H](O[C@H]4[C@H](O)[C@@H](O)[C@@H](O[C@H]5O[C@H](CO)[C@@H](O)[C@H](O)[C@H]5O)O[C@@H]4CO)O[C@@H]3CO)O[C@@H]2CO)[C@H](O)[C@@H](O)[C@@H]1N[C@H]1C=C(CO)[C@@H](O[C@H]2O[C@H](CO)[C@@H](O[C@H]3O[C@H](C)[C@@H](NC4C=C(CO)[C@@H](O[C@H]5O[C@H](CO)[C@@H](O[C@H]6O[C@H](C)[C@@H](NC7C=C(CO)[C@@H](O)[C@H](O)[C@H]7O)[C@H](O)[C@H]6O)[C@H](O)[C@H]5O)[C@H](O)[C@H]4O)[C@H](O)[C@H]3O)[C@H](O)[C@H]2O)[C@H](O)[C@H]1O (stereo partly drawn) [Trestatin C],far from being satisfactory
5,N[C@H]1C=C(CO)[C@@H](O)[C@H](O)[C@H]1O [valienamine],possesses an action of suppressing the function of α-glucoside hydrolase

# Test system: α-glucoside hydrolase (α-glucosidase)
# Test: α-glucoside hydrolase / α-glucosidase inhibitory activity, in words
# Type: biochemical
# Conditions: found by the inventors
row,SMILES,α-glucoside hydrolase suppressing / α-glucosidase inhibitory activity
1,N[C@H]1C[C@H](CO)[C@@H](O)[C@H](O)[C@H]1O [validamine],possesses a highly valuable action of suppressing the function of α-glucoside hydrolase
